Experimental findings from ChEMBL document CHEMBL3792322, “Metabolic investigation on ZL006 for the discovery of a potent prodrug for the treatment of cerebral ischemia” (Bioorg Med Chem Lett, 2016) are described below.

Activity calls are given as the source filed them. The rule behind the calls is not given here.

Data set [1] deals with Brain. Kind of data set: Drug metabolism in mouse brain assessed as ZL006 formation at 20 mg/kg, iv measured 15 to 30 mins post dosing by HPLC-MS/MS method. The class given is ADME, organism-based. The note with it: in vivo.
Another data set has as its system Plasma. Kind of data set: Metabolic stability in mouse plasma at 20 mg/kg, iv measured 15 to 30 mins post dosing by HPLC-MS/MS method. The class given is ADME, organism-based. The note with it: in vivo.
Data set [2] concerns Brain. Kind of data set: Drug uptake in mouse brain at 20 mg/kg, iv measured 15 to 30 mins post dosing by HPLC-MS/MS method. It is filed as ADME, organism-based. The settings on record: in vivo.
The subject of data set [3] is Mus musculus. In words: Protective activity in BCCAO-induced mouse acute cerebral ischemia model assessed as prolonged surviving time at 4 mg/kg, iv measured 1 hr post dose. It is filed as functional, organism-based.
Data set [4] deals with Mus musculus. Kind of data set: Protective activity in BCCAO-induced mouse acute cerebral ischemia model assessed as prolonged surviving time at 4 mg/kg, iv measured 4 hrs post dose. The class given is functional, organism-based.
Data set [5] relates to Rattus norvegicus. Kind of data set: Protective activity in iv dosed MCAO-induced rat focal cerebral ischemia model assessed as reduction in infarct size treated at 1 hr post reperfusion measured after 24 hrs by TTC-staining based analysis. It is filed as functional, organism-based.
Data set [6] relates to Rattus norvegicus. In words: Protective activity in MCAO-induced rat focal cerebral ischemia model assessed as reduction in infarct size at 2 mg/kg, iv administered 1 hr post reperfusion measured after 24 hrs by TTC-staining based analysis. It is filed as functional, organism-based.
For data set [7], the system named is Rattus norvegicus. In words: Protective activity in MCAO-induced rat focal cerebral ischemia model assessed as reduction in infarct size at 1 mg/kg, iv administered 1 hr post reperfusion measured after 24 hrs by TTC-staining based analysis. It is filed as functional, organism-based.

Turning to `COc1cc(NCc2cc(Cl)cc(Cl)c2O)ccc1C(=O)O`, the Drug metabolism entry in the data set on Brain [1] was “metabolite_notdetected”. The Stability entry in the data set with Plasma was “Unstable”. For the same compound, the Drug uptake result with Brain [2] is given as “Not Active”.
As for `COc1c(Cl)cc(Cl)cc1CNc1ccc(C(=O)O)c(O)c1`, the Drug metabolism entry in the data set with Brain [1] is on record as “metabolite_notdetected”.
In the case of `CCOC(=O)c1ccc(NCc2cc(Cl)cc(Cl)c2O)cc1O`, in the data set on Brain [1], the Drug metabolism result is reported as “metabolite_detected”. Besides, the Stability result in the data set with Plasma is on record as “Stable”. The result in the data set on Mus musculus [3] and in the data set with Mus musculus [4] was Active.
For the compound `CN(Cc1cc(Cl)cc(Cl)c1O)c1ccc(C(=O)O)c(O)c1`, the Drug metabolism result with Brain [1] is “metabolite_notdetected”. The Drug uptake entry with Brain [2] is listed as “Not Active”.
In the case of `O=C(OC1CCCCC1)c1ccc(NCc2cc(Cl)cc(Cl)c2O)cc1O`, the Drug metabolism entry with Brain [1] is reported as “metabolite_detected”. Also, the Stability entry in the data set on Plasma is “Stable”. Further, the result in the data set with Mus musculus [3], with Mus musculus [4] and in the data set with Rattus norvegicus [7] was Active. Besides, the Activity result with Rattus norvegicus [5] was “Dose-dependent effect”. For the same compound, the outcome in the data set with Rattus norvegicus [6] was inactive.
On to `COC(=O)c1ccc(NCc2cc(Cl)cc(Cl)c2O)cc1O`, for which the Drug metabolism entry with Brain [1] is “metabolite_detected”. Moreover, the Stability result in the data set on Plasma was “Stable”. The outcome in the data set with Mus musculus [3] was Active.
